Legend:
Peronospora parasitica = assay: In vivo test Peronospora parasitica (downy mildew on cabbage), protective; details: evaluation 5 days after infection
Experimental: In vivo test Peronospora parasitica (downy mildew on cabbage) To prepare an appropriate active compound formulation, the active compound is mixed with acetone/Tween/DMSO and the mixture is diluted with water to the desired concentration. Cabbage plants are cultivated in 50/50 peat/pozzolan soil in small pots at 18-20° C. and sprayed at the cotyledon stage at the respective stated application rates to test for protective activity. Control plants were treated in the same manner, but using an aqueous solution without any active compounds. 24 hours after the spraying, the plants were sprayed with a spore suspension of Peronospora parasitica (50 000 spores/ml). The plants were placed in a cabin at 20° C. in a humid atmosphere for 5 days.

Botrytis cinerea = assay: In vivo test Botrytis cinerea (gray mold on cucumbers); details: Botrytis cinerea on cucumber, evaluation 5-7 days after infection
Experimental: Cucumber plants (Vert petit de Paris) are cultivated in 50/50 peat pozzolan substrate at 20-25° C. and sprayed at the Z16 stage with the active compound preparation given in Example 1. After 24 hours, the upper sides of the leaves of the plants are sprayed with a spore suspension of Botrytis cinerea (150 000 spores/ml). The spores of a 15-day old culture are collected and suspended in a nutrient solution consisting of • 20 g/l of gelatin; • 50 g/l of D-fructose; • 2 g/l of NH4NO3; • 1 g/L of KH2PO4. The inoculated cucumber plants are placed at 15-11° C. (day/night) and at 80% relative atmospheric humidity for 5-7 days.

Alternaria brassicae = assay: In vivo test Alternaria brassicae (salad radish); design: concentration or dose not given beside the values; details: Alternaria brassicae on salad radish, application rate not given, evaluation 6-7 days after inoculation
Experimental: Salad radish (cultivar Pernot) are cultivated in 50/50 peat pozzolan substrate at 18-20° C. and sprayed at the cotyledon stage with the active compound preparation given above. After 24 hours, the plants are sprayed with a spore suspension of Alternaria brassicae (40 000 spores/cm3). The inoculated plants are placed at 18° C. and in a humid atmosphere for 6-7 days. […] At an application rate of g/ha, the following efficacies are found for the following compounds.

[1] = system: Mycosphaerella graminicola; assay: In vivo test Mycosphaerella graminicola (wheat); details: Mycosphaerella graminicola on wheat, evaluation 21-28 days after inoculation
Experimental: Wheat plants (cultivar: (Scipion) are cultivated in 50/50 peat pozzolan substrate at 12° C. and sprayed at the 1-leaf stage with the active compound preparation as given in Example A. After 24 hours, the plants are sprayed with a spore suspension of Mycosphaerella graminicola (500 000 spores/ml).

Sphaerotheca fuliginea = assay: In vivo test Sphaerotheca fuliginea (cucumber); details: Sphaerotheca fuliginea on cucumber, evaluation 12 days after inoculation
Experimental: Cucumber plants (cultivar: Vert petit de Paris) are cultivated in 50/50 peat pozzolan substrate at 20/23° C. and sprayed at the cotyledon stage with the active compound preparation given in Example A. After 24 hours, the plants are sprayed with a spore suspension of Sphaerotheca fuliginea (100 000 spores/ml).

Phytophthora infestans = format: in vivo; details: Phytophthora infestans on tomato, application rate 1200 g/ha, evaluation 5 days after infection
Leptosphaeria nodorum = assay: In vivo test Leptosphaeria nodorum (wheat); details: Leptosphaeria nodorum on wheat, application rate 1200 g/ha, evaluation 15-17 days after inoculation
Experimental: Wheat plants (cultivar: (Scipion) are cultivated in 50/50 peat pozzolan substrate at 12° C. and sprayed at the 1-leaf stage with the active compound preparation as given in Example A. After 24 hours, the plants are sprayed with a spore suspension of Leptosphaeria nodorum (250 000 spores/ml).

Row | Compound | Activity [%] (efficacy) (Peronospora parasitica; application rate 1200 g/ha) | Activity [%] (efficacy) (Alternaria brassicae) | Activity [%] (efficacy) (Peronospora parasitica; application rate 500 g/ha) | Activity [%] (efficacy) ([1]; application rate 500 g/ha) | Activity [%] (efficacy) (Phytophthora infestans) | other results
1 | CCC(C)NC(=O)C1(C)CC(c2cc(Cl)cc(Cl)c2)=NO1 (mixture of isomers) [Example 6.217] | 100% | 81% | – | – | – | Activity [%] (efficacy) (Botrytis cinerea; application rate 1200 g/ha): 100%
2 | C#CC(C)NC(=O)C1(C)CC(c2cc(Cl)cc(Cl)c2)=NO1 (single isomer, unassigned) [Example 6.216] | – | 82% | 75% | – | – | –
3 | Cc1c(NC(=O)C2(C)CC(c3cc(F)cc(F)c3)=NO2)cnn1C (stereo not drawn) [Example 1.007] | – | – | – | 73% | – | Activity [%] (efficacy) (Sphaerotheca fuliginea; application rate 500 g/ha): 75%
4 | Cc1cc(CNC(=O)C2(C)CC(c3cc(Cl)cc(Cl)c3)=NO2)n(C)n1 (stereo not drawn) [Example 1.122] | – | – | 100% | 75% | – | Activity [%] (efficacy) (Sphaerotheca fuliginea; application rate 500 g/ha): 72%
5 | CCn1cc(CNC(=O)C2(C)CC(c3cc(C)cc(C)c3)=NO2)c(C)n1 (stereo not drawn) [Example 1.194] | 100% | – | – | – | 100% | Activity [%] (efficacy) ([1]; application rate 1200 g/ha): 88%; Activity [%] (efficacy) (Botrytis cinerea; application rate 1200 g/ha): 95%
6 | CCn1cc(CNC(=O)C2(C)CC(c3cccc(Cl)c3)=NO2)c(C)n1 (stereo not drawn) [Example 1.195] | 100% | – | – | 79% | 100% | –
7 | CCn1cc(CNC(=O)C2(C)CC(c3cc(F)cc(Cl)c3)=NO2)c(C)n1 (stereo not drawn) [Example 1.197] | 100% | – | – | – | 100% | Activity [%] (efficacy) (Sphaerotheca fuliginea; application rate 1200 g/ha): 100%
8 | CCn1cc(CNC(=O)C2(C)CC(c3cc(Cl)cc(Cl)c3)=NO2)c(C)n1 (stereo not drawn) [Example 1.222] | – | – | 100% | – | 100% | Activity [%] (efficacy) ([1]; application rate 1200 g/ha): 96%
9 | Cn1cc(CNC(=O)C2(C)CC(c3cc(Cl)cc(Cl)c3)=NO2)cn1 (stereo not drawn) [Example 1.285] | – | – | 100% | 75% | – | Activity [%] (efficacy) (Sphaerotheca fuliginea; application rate 500 g/ha): 89%
10 | CCCn1cc(CNC(=O)C2(C)CC(c3cc(Cl)cc(Cl)c3)=NO2)c(C)n1 (stereo not drawn) [Example 1.374] | 100% | – | – | – | 100% | Activity [%] (efficacy) (Botrytis cinerea; application rate 1200 g/ha): 98%; Activity [%] (efficacy) (Sphaerotheca fuliginea; application rate 1200 g/ha): 99%
11 | CCn1cc(CNC(=O)C2(CC)CC(c3cc(Cl)cc(Cl)c3)=NO2)cn1 (stereo not drawn) [Example 2.136] | 100% | – | – | – | 90% | Activity [%] (efficacy) ([1]; application rate 1200 g/ha): 88%
12 | CCn1cc(CNC(=O)C2(C3CC3)CC(c3cc(Cl)cc(Cl)c3)=NO2)c(C)n1 (stereo not drawn) [Example 5.018] | – | – | 100% | – | 75% | Activity [%] (efficacy) ([1]; application rate 1200 g/ha): 88%
13 | COCCCCNC(=O)C1(C)CC(c2cc(Cl)cc(Cl)c2)=NO1 (stereo not drawn) [Example 6.006] | 100% | – | – | – | 70% | Activity [%] (efficacy) (Leptosphaeria nodorum): 100%
14 | CC1(C(=O)NC2CC2)CC(c2cc(Cl)cc(Cl)c2)=NO1 (stereo not drawn) [Example 6.054] | – | 94% | – | 100% | – | –
15 | CC1(C(=O)NC2CC2)CC(c2cc(Cl)cc(Br)c2)=NO1 (stereo not drawn) [Example 6.064] | – | 91% | – | 100% | – | –
16 | CC(C)(C)NC(=O)C1(C)CC(c2cc(Cl)cc(Cl)c2)=NO1 (stereo not drawn) [Example 6.117, N-tert-butyl-3-(3,5-dichlorophenyl)-5-methyl-4,5-dihydro-1,2-oxazole-5-carboxamide] | – | 73% | 92% | 91% | – | –
17 | CC(C)NC(=O)C1(C)CC(c2cc(Cl)cc(Cl)c2)=NO1 (stereo not drawn) [Example 6.165] | – | 95% | 95% | 100% | – | Activity [%] (efficacy) (Botrytis cinerea; application rate 500 g/ha): 93%
18 | CC(C)NC(=O)C1(C)CC(c2cccc(N)c2)=NO1 (stereo not drawn) [Example 6.183] | – | – | – | – | – | Activity [%] (efficacy) (Sphaerotheca fuliginea; application rate 500 g/ha): 98%
19 | CC(C)NC(=O)C1(C)CC(c2cc(Cl)cc(C(F)(F)F)c2)=NO1 (stereo not drawn) [Example 6.188] | – | 73% | – | 100% | – | Activity [%] (efficacy) (Botrytis cinerea; application rate 500 g/ha): 86%
20 | CC(C)NC(=O)C1(C)CC(c2cc(Cl)cc(OCC(F)(F)F)c2)=NO1 (stereo not drawn) [Example 6.193] | – | – | – | 95% | – | Activity [%] (efficacy) (Sphaerotheca fuliginea; application rate 500 g/ha): 85%
21 | CC1(C(=O)NCC(F)(F)F)CC(c2cc(Cl)cc(Cl)c2)=NO1 (stereo not drawn) [Example 6.377] | – | 77% | – | 100% | – | –
22 | CC1(C(=O)NCC2CC2)CC(c2cc(Cl)cc(Cl)c2)=NO1 (stereo not drawn) [Example 6.431] | – | 77% | 71% | 100% | – | –
23 | CCC1(C(=O)NC(C)C)CC(c2cc(Cl)cc(Cl)c2)=NO1 (stereo not drawn) [Example 7.161] | 97% | – | – | – | – | Activity [%] (efficacy) ([1]; application rate 1200 g/ha): 85%; Activity [%] (efficacy) (Botrytis cinerea; application rate 1200 g/ha): 100%
24 | CCC1(C(=O)NCC(F)(F)F)CC(c2cc(Cl)cc(Cl)c2)=NO1 (stereo not drawn) [Example 7.359] | – | 86% | – | 100% | – | –

From patent US9078442B2, “Herbicidally and fungicidally active 3-phenylisoxazoline-5-carboxamides and 3-phenylisoxazoline-5-thioamides” (BAYER INTELLECTUAL PROPERTY GMBH, priority 2011, dated 2015)
